Data on 13 compounds can be found in patent publication US20110281812A1, “Compounds” (priority 2009, published 2011).

The subject of test [1] is male BALB/cJ mice. The experiment in a line: Lung neutrophilia induced by bacterial lipopolysaccharide in male BALB/cJ mice - Method B. The settings on record: Mus musculus, ip, 24 h, single dose of 100 mg/kg i.p., vs LPS challenged untreated animals. Format: in vivo. How it is done:
For intraperitoneal administration (i.p.) compounds were dissolved in a final concentration of 10 mg/mL. The required amount of compound was first dissolved in dimethylsulfoxide (DMSO, Sigma) and then diluted with 0.5% (w/v) methyl-cellulose so that the final DMSO concentration was 5% (v/v). The obtained solution was applied in a dose volume of 0.1 mL per 10 g of animal. Therefore, the compound dose was 100 mg/kg.
Male BALB/cJ mice (Charles River, Germany), with an average weight of ˜25 g were randomly grouped (n=8 in testing group, 10 in positive control and 6-8 in negative control). Mice received intraperitoneally (i.p.) a single dose of 100 mg/kg of test compound. Two hours after administration, 0.4 μg of LPS (from Escherichia coli serotype 0111:B4, Sigma), dissolved in sterile saline (0.9% NaCl) in a volume of 50 μL, was intranasally administered to all experimental groups except the negative control group, which received the same volume of vehicle (saline). Animals were sacrificed approximately 24 hours after application of LPS in order to obtain bronchoalveolar lavage fluid (BALF), which was used to determine absolute number of cells and the percentage of neutrophils. […] In some experiments neutrophil levels in BALF were assessed by measurement of concentration of a neutrophil-specific enzyme myeloperoxidase (MPO). Results are then expressed as percentage of decrease in myeloperoxidase (MPO) concentration measured in BALF lysates of treated animals compared to positive control (Mouse MPO ELISA Kit, Hycult biotechnology, Nederlands). For this purpose, BALF was sonicated after addition of 1.5% Triton-X-100 (Pharmacia Biotech) in Milli-Q water and frozen at −80° C. until analysed.

Test [2] relates to IL-6 production in LPS-stimulated murine spleenocytes. The experiment in a line: Inhibition of IL-6 production in LPS-stimulated murine spleenocytes in vitro. Format: cell-based. Conditions: Mus musculus, 50 μM concentration of the compound, read-out: inhibition of interleukin-6 (IL-6) production. How it is done:
Test and reference substances used in an in vitro assays were dissolved in dimethyl sulfoxide (DMSO) (Sigma Chemical Co., USA) at a concentration of 50 mM and were further diluted to test concentrations in appropriate cell culture medium.
After cervical dislocation, mouse spleens were removed using sterile dissection tools. Spleens were transferred to a pre-wetted cell strainer in a 50 mL sterile conical tube and cell suspension was made by gentle puddle. Cells were centrifuged (20 min, 300×g) and resuspended in 2 mL of sterile phosphate buffered saline (PBS) (Sigma Chemical Co., USA). Red blood cells were lysed by addition of 3 mL of sterile water and occasionally gentle shaking for 1 minute. Afterwards, the tube was filled to 40 mL with DMEM medium and centrifuged (20 min, 300×g). Cells were resuspended in DMEM supplemented with 1% FBS and seeded in a 24-well plate, 1×10^6 cells per mL medium.
Final concentrations of 50 μM, 25 μM, 12.5 μM, 6.3 μM and 3.1 μM of test compounds were prepared by diluting a 50 mM DMSO stock in Dulbecco's modified Eagle medium (DMEM) (Gibco, USA) supplemented with 1% heat inactivated fetal bovine serum (FBS) (BioWest, Ringmer, United Kingdom).
Cells were pre-incubated with the test compounds for 3 h at 37° C., in an atmosphere of 5% CO2 and 90% humidity. Afterwards, cells were stimulated with 1 μg/mL lipopolysaccharide (LPS, E. coli 0111:B4, Sigma Chemical Co., USA) and incubated overnight. Concentration of IL-6 was determined in cell supernatants by sandwich ELISA using capture and detection antibodies (R&D Systems, USA) according to the manufacturer's recommendations.
Inhibition (as percentage) was calculated using the following formula:
% inhibition=[1−(concentration of IL-6 in sample−concentration of IL-6 in negative control)/(concentration of IL-6 in positive control−concentration of IL-6 in negative control)]×100.
The positive control refers to LPS-stimulated samples that were not preincubated with the compounds.
The negative control refers to unstimulated and untreated samples.

Setting [3] is: Neutrophil, read-out: inhibition of number of neutrophils or decrease in myeloperoxidase concentration in BALF.
[4] abbreviates: read-out: inhibition of total cell number in BALF.

Where two headings read alike, the source gives them in different places. Some results are limits rather than exact numbers.

For orientation: inhibition means how much of the control response was suppressed. Turning to `CC[C@H]1OC(=O)[C@H](C)[C@@H](O[C@H]2C[C@@](C)(OC)[C@@H](O)[C@H](C)O2)[C@H](C)[C@@H](O[C@@H]2O[C@H](C)C[C@H](N(C)C)[C@H]2OCCCNC(=O)CN(C)C)[C@](C)(O)C[C@@H](C)CN(C)[C@H](C)[C@@H](O)[C@]1(C)O` [Example 7, 2′-O-{3-[(N,N-Dimethylglycyl)amino]propyl}-9-deoxo-9a-methyl-9a-aza-9a-homoerythromycin A], the inhibition in vivo at 100 mg/kg in test [1] (setting [3]) and in test [1] (setting [4]) was greater than 30% in each case. Besides, the inhibition at 50 µM in test [2] was greater than 40%.
For the compound `CC[C@H]1OC(=O)[C@H](C)[C@@H](O[C@H]2C[C@@](C)(OC)[C@@H](O)[C@H](C)O2)[C@H](C)[C@@H](O[C@@H]2O[C@H](C)C[C@H](N(C)C)[C@H]2OCCCNC(=O)CCC(=O)OC)[C@](C)(O)C[C@@H](C)CN(C)[C@H](C)[C@@H](O)[C@]1(C)O` [Example 13, 2′-O-(3-{[4-(Methyloxy)-4-oxobutanoyl]amino}propyl)-9-deoxo-9a-methyl-9a-aza-9a-homoerythromycin A], the inhibition in vivo at 100 mg/kg in test [1] (setting [3]) and in test [1] (setting [4]) was greater than 50% in each case. For the same compound, the inhibition at 50 µM in test [2] was greater than 40%.
In the case of `CC[C@H]1OC(=O)[C@H](C)[C@@H](O[C@H]2C[C@@](C)(OC)[C@@H](O)[C@H](C)O2)[C@H](C)[C@@H](O[C@@H]2O[C@H](C)C[C@H](N(C)C)[C@H]2OCCCNC(=O)CCCC(=O)OC)[C@](C)(O)C[C@@H](C)CN(C)[C@H](C)[C@@H](O)[C@]1(C)O` [Example 14, 2′-O-(3-{[5-(Methyloxy)-5-oxopentanoyl]amino}propyl)-9-deoxo-9a-methyl-9a-aza-9a-homoerythromycin A], the inhibition in vivo at 100 mg/kg in test [1] (setting [3]) and in test [1] (setting [4]) was greater than 30% throughout. For the same compound, the inhibition at 50 µM in test [2] is greater than 40%.
`CC[C@H]1OC(=O)[C@H](C)[C@@H](O[C@H]2C[C@@](C)(OC)[C@@H](O)[C@H](C)O2)[C@H](C)[C@@H](O[C@@H]2O[C@H](C)C[C@H](N(C)C)[C@H]2OCCCNC(=O)C2CCC2)[C@](C)(O)C[C@@H](C)CN(C)[C@H](C)[C@@H](O)[C@]1(C)O` [Example 15, 2′-O-{3-[(Cyclobutylcarbonyl)amino]propyl}-9-deoxo-9a-methyl-9a-aza-9a-homoerythromycin A]: the inhibition in vivo at 100 mg/kg in test [1] (setting [3]) and in test [1] (setting [4]) was greater than 30% throughout. Also, the inhibition at 50 µM in test [2] is greater than 40%.
As for `CC[C@H]1OC(=O)[C@H](C)[C@@H](O[C@H]2C[C@@](C)(OC)[C@@H](O)[C@H](C)O2)[C@H](C)[C@@H](O[C@@H]2O[C@H](C)C[C@H](N(C)C)[C@H]2OCCCNC(=O)c2cc(O)ccc2O)[C@](C)(O)C[C@@H](C)CN(C)[C@H](C)[C@@H](O)[C@]1(C)O` [Example 32, 2′-O-{3-[(2,5-Dihydroxyphenylcarbonyl)amino]propyl}-9-deoxo-9a-methyl-9a-aza-9a-homoerythromycin A], the inhibition at 50 µM in test [2] was greater than 40%.
`CC[C@H]1OC(=O)[C@H](C)[C@@H](O[C@H]2C[C@@](C)(OC)[C@@H](O)[C@H](C)O2)[C@H](C)[C@@H](O[C@@H]2O[C@H](C)C[C@H](N(C)C)[C@H]2OCCCNC(=O)c2ccc(N)cc2O)[C@](C)(O)C[C@@H](C)CN(C)[C@H](C)[C@@H](O)[C@]1(C)O` [Example 33, 2′-O-(3-{[(4-Amino-2-hydroxyphenyl)carbonyl]amino}propyl)-9-deoxo-9a-methyl-9a-aza-9a-homoerythromycin A]: the inhibition at 50 µM in test [2] is greater than 40%.
On the same count and under the same terms, with `CC[C@H]1OC(=O)[C@H](C)[C@@H](O[C@H]2C[C@@](C)(OC)[C@@H](O)[C@H](C)O2)[C@H](C)[C@@H](O[C@@H]2O[C@H](C)C[C@H](N(C)C)[C@H]2OCCCNC(=O)c2cccnc2Cl)[C@](C)(O)C[C@@H](C)CN(C)[C@H](C)[C@@H](O)[C@]1(C)O` [Example 34, 2′-O-(3-{[(2-Chloro-3-pyridinyl)carbonyl]amino}propyl)-9-deoxo-9a-methyl-9a-aza-9a-homoerythromycin A] the figure was greater than 40%; with `CC[C@H]1OC(=O)[C@H](C)[C@@H](O[C@H]2C[C@@](C)(OC)[C@@H](O)[C@H](C)O2)[C@H](C)[C@@H](O[C@@H]2O[C@H](C)C[C@H](N(C)C)[C@H]2OCCCNC(=O)c2ccc(C)nc2Cl)[C@](C)(O)C[C@@H](C)CN(C)[C@H](C)[C@@H](O)[C@]1(C)O` [Example 35, 2′-O-(3-{[(2-Chloro-6-methyl-3-pyridinyl)carbonyl]amino}propyl)-9-deoxo-9a-methyl-9a-aza-9a-homoerythromycin A], greater than 40%.
Consider `CC[C@H]1OC(=O)[C@H](C)[C@@H](O[C@H]2C[C@@](C)(OC)[C@@H](O)[C@H](C)O2)[C@H](C)[C@@H](O[C@@H]2O[C@H](C)C[C@H](N(C)C)[C@H]2OCCCNC(=O)c2nccnc2N)[C@](C)(O)C[C@@H](C)CN(C)[C@H](C)[C@@H](O)[C@]1(C)O` [Example 37, 2′-O-(3-{[(3-Amino-2-pyrazinyl)carbonyl]amino}propyl)-9-deoxo-9a-methyl-9a-aza-9a-homoerythromycin A], for which the inhibition at 50 µM in test [2] is greater than 40%.
Turning to `CC[C@H]1OC(=O)[C@H](C)[C@@H](O[C@H]2C[C@@](C)(OC)[C@@H](O)[C@H](C)O2)[C@H](C)[C@@H](O[C@@H]2O[C@H](C)C[C@H](N(C)C)[C@H]2OCCCNC(=O)c2c(C)nn(C)c2Cl)[C@](C)(O)C[C@@H](C)CN(C)[C@H](C)[C@@H](O)[C@]1(C)O` [Example 38, 2′-O-(3-{[(5-Chloro-1,3-dimethyl-1H-pyrazol-4-yl)carbonyl]amino}propyl)-9-deoxo-9a-methyl-9a-aza-9a-homoerythromycin A], the inhibition at 50 µM in test [2] was greater than 40%.
On to `CC[C@H]1OC(=O)[C@H](C)[C@@H](O[C@H]2C[C@@](C)(OC)[C@@H](O)[C@H](C)O2)[C@H](C)[C@@H](O[C@@H]2O[C@H](C)C[C@H](N(C)C)[C@H]2OCCCNC(=O)c2nc(C)oc2C)[C@](C)(O)C[C@@H](C)CN(C)[C@H](C)[C@@H](O)[C@]1(C)O` [Example 39, 2′-O-(3-{[(2,5-Dimethyl-1,3-oxazol-4-yl)carbonyl]amino}propyl)-9-deoxo-9a-methyl-9a-aza-9a-homoerythromycin A], for which, in test [2], the inhibition at 50 µM was greater than 40%.
Same read-out and setting: with `CC[C@H]1OC(=O)[C@H](C)[C@@H](O[C@H]2C[C@@](C)(OC)[C@@H](O)[C@H](C)O2)[C@H](C)[C@@H](O[C@@H]2O[C@H](C)C[C@H](N(C)C)[C@H]2OCCCNC(=O)[C@@H]2CCCN2C)[C@](C)(O)C[C@@H](C)CN(C)[C@H](C)[C@@H](O)[C@]1(C)O` [Example 40, 2′-O-{3-[(1-Methyl-L-prolyl)amino]propyl}-9-deoxo-9a-methyl-9a-aza-9a-homoerythromycin A] the figure was greater than 40%; with `CC[C@H]1OC(=O)[C@H](C)[C@@H](O[C@H]2C[C@@](C)(OC)[C@@H](O)[C@H](C)O2)[C@H](C)[C@@H](O[C@@H]2O[C@H](C)C[C@H](N(C)C)[C@H]2OCCCNC(=O)CC(C)C)[C@](C)(O)C[C@@H](C)CN(C)[C@H](C)[C@@H](O)[C@]1(C)O` [Example 41, 2′-O-{3-[(3-Methylbutanoyl)amino]propyl}-9-deoxo-9a-methyl-9a-aza-9a-homoerythromycin A], greater than 40%.
